In the NIST ThermoML archive (doi:10.1016/j.jct.2013.10.025):

Experiment: xn = mol fraction of the nth substance listed
Settings: 101 kPa, Liquid; for viscosity: Capillary tube (Ostwald / Ubbelohde) method; for speed of sound: Sing-around technique in a fixed-path interferometer; for mass density: Vibrating tube method

C1CCOC1 [tetrahydrofuran] + CCCCCCCCO
Settings	mass density, 298.15 K [kg/m3]	mass density, 303.15 K [kg/m3]	speed of sound, 298.15 K [m/s]	speed of sound, 303.15 K [m/s]	viscosity, 298.15 K [mPa·s]	viscosity, 303.15 K [mPa·s]
x1 = 0.0541	823.522	819.992	1344.5	1327.7	6.305	5.227
x1 = 0.1044	825.135	821.552	1341.3	1324.3	5.403	4.562
x1 = 0.1535	826.78	823.145	1337.5	1320.4	4.698	3.988
x1 = 0.205	828.609	824.915	1333.5	1316	4.025	3.395
x1 = 0.2574	830.564	826.809	1329.8	1312.4	3.477	3.014
x1 = 0.3054	832.449	828.634	1326.5	1308.7	2.996	2.602
x1 = 0.4003	836.541	–	1319.6	1301.4	2.307	2.089
x1 = 0.5004	841.464	–	1312.2	1293.4	1.747	1.566
x1 = 0.6111	847.802	–	1302.9	1283.4	1.271	1.173
x1 = 0.7032	853.984	–	1295.5	1275.5	0.996	0.931
x1 = 0.8116	862.541	–	1287.9	1266.9	0.747	0.715
x1 = 0.9048	871.362	–	1281.7	1259.7	0.589	0.566
